The structures appear in SMILES notation.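 Results reflect a 48-hour exposure of cells in 96-well plates to compound at five concentrations. Abbreviation: GI50, concentration required for 50% inhibition of growth. At the TGI there is no net growth.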

Common to all, as to experiment: NCI-60 cell line screen, 48 h
Experiment [1] concerns CCRF-CEM leukemia.
Experiment [2] concerns NCI-H226 lung.
Experiment [3] deals with NCI/ADR-RES ovarian.
Experiment [4] has as its system RXF 393 renal.
For experiment [5], the system named is SF-268 CNS.
For experiment [6], the system named is SF-295 CNS.
The subject of experiment [7] is SNB-19 CNS.
Experiment [8] deals with TK-10 renal.
Experiment [9] deals with HCC-2998 colon.
For experiment [10], the system named is LOX IMVI melanoma.

As to `COC(=O)c1ccc2c(c1)nc(-c1cc3ccccc3[nH]c1=O)n2-c1cc(C(C)(C)C)[nH]n1`, the GI50 in experiment [1] was 0.853 µM; in experiment [2], 16.5 µM; in [3] it was 2.97 µM; in experiment [4], 2.83 µM; in [5], 2.24 µM; in experiment [6], 2.14 µM. Further, the GI50 in experiment [7] is 7.59 µM; in experiment [8], 40 µM. Also, the TGI is over 100 µM in experiment [1]; over 100 µM in experiment [2]; over 100 µM in experiment [3]; over 29.8 µM in experiment [4]; over 95.9 µM in experiment [5]; over 50.5 µM in experiment [6]. In addition, the figures for the TGI in [7] and in experiment [8] were over 100 µM and over 74.7 µM, respectively.

Regarding `COc1cc(C(=O)/C=C/c2cc(C(=O)c3cc(OC)c(OC)c(OC)c3)ccc2OC)ccc1N`, the GI50 is 0.35 µM in experiment [1]; 1.27 µM in experiment [9]; 0.74 µM in [10]; 2.14 µM in experiment [2]; 0.388 µM in experiment [3]; 2.3 µM in [6]. In addition, the GI50 in [8] was 3.61 µM. Besides, the TGI was over 100 µM in experiment [1]; 2.64 µM in experiment [9]; 2.03 µM in [10]; 7.39 µM in experiment [2]; 2.51 µM in [3]; 17.4 µM in experiment [6]. The compound further yielded a TGI in experiment [8] of 18 µM.

As for `Cc1cccc(Oc2nccc(-c3c(-c4ccc(F)cc4)ncn3C3CCNCC3)n2)c1C`, the GI50 was 4.22 µM in experiment [9]; 5.79 µM in experiment [10]; 11.5 µM in experiment [3]; 3.53 µM in experiment [4]; 13.3 µM in experiment [5]; 5.56 µM in experiment [6]. Moreover, the GI50 was 10.2 µM in experiment [7] and 7.16 µM in experiment [8]. In addition, the TGI in experiment [9] is 8.96 µM; in experiment [10] it was over 15.1 µM; in experiment [3], over 25 µM; in experiment [4], 9.17 µM; in [5], over 25 µM; in experiment [6] it was 14 µM. In addition, the TGI in [7] is over 25 µM; in experiment [8], over 16.3 µM.

As for `CN(C)c1ccc(C(=C2C=CC(=[N+](C)C)C=C2)c2ccc(N(C)C)cc2)cc1` (tested in a mixture with another compound), the GI50 was 0.231 µM in experiment [1]; 0.912 µM in [3]; 0.108 µM in experiment [4]; 0.0483 µM in [6]; 0.0394 µM in experiment [8]. For the same compound, the TGI in [1] stood at 19.5 µM; in [9], 1.53 µM; in experiment [4], 0.871 µM; in [5], 1.29 µM; in experiment [6], 0.396 µM; in experiment [7], 1.56 µM. The TGI in [8] worked out at 0.321 µM.

In the case of `COc1ccc(C(=O)c2ccc(OC)c(OC)c2OC)cc1`, the GI50 in [1] was 1.46 µM; in experiment [9], 2.76 µM; in [10], 6.63 µM; in [2] it was 34.7 µM; in experiment [3], 0.693 µM; in experiment [5] it was 5.2 µM. In addition, the GI50 in experiment [6] is 0.956 µM; in experiment [7], 4.87 µM; in experiment [8], 2.85 µM. For the same compound, the TGI in experiment [1] is over 100 µM; in experiment [9], over 100 µM; in experiment [10] it was over 100 µM; in [2], over 100 µM; in experiment [3] it was 7.8 µM; in experiment [5], over 100 µM. The TGI in experiment [6] is 5.07 µM; in experiment [7], over 100 µM; in [8], over 100 µM.

Take `O=C(OCc1ccccc1)N1CCN(/[N+]([O-])=N/Oc2ccc([N+](=O)[O-])cc2[N+](=O)[O-])CC1`: the GI50 was 3.55 µM in experiment [2]; 5.25 µM in experiment [3]; 29.2 µM in experiment [4]; 6.28 µM in [5]; 21.5 µM in [6]; 13.6 µM in experiment [7]. Also, the GI50 in experiment [8] was 17.6 µM. The TGI in experiment [2] was 26.3 µM; in experiment [3] it was over 100 µM; in experiment [4] it was 56.5 µM; in [5], 23.9 µM; in [6], 49.4 µM; in [7], 35.8 µM. The same compound had a TGI in experiment [8] of 33.4 µM.

As to `CN1C2(c3ccccc3)c3c(-c4ccccc4)sc(-c4ccccc4)c3C1(c1ccccc1)C1C(=O)N(c3ccccc3)C(=O)C12` (stereo not given), the TGI in experiment [1], in experiment [9], in [10], in [2], in experiment [4] and in experiment [5] was over 100 µM in each case. Moreover, the TGI in [6], in experiment [7] and in experiment [8] was over 100 µM throughout.

`C1CCN(CCC2CCCCN2)CC1` (stereo not given): the TGI in experiment [1], in experiment [10], in experiment [2], in experiment [3], in experiment [4] and in [5] was over 100 µM throughout. Moreover, the TGI in [6], in experiment [7] and in experiment [8] was over 100 µM in each case.

On to `CCn1c2c(n(CC)c1=S)-c1c(n(CC)c(=S)n1CC)SSSS2`, for which the TGI in experiment [1] is 9.42 µM; in [9], 49.4 µM; in experiment [10], 23.2 µM; in experiment [2], 52.2 µM; in experiment [4], 7.55 µM; in experiment [5], 44.4 µM. Also, the TGI is over 80.3 µM in experiment [6], over 100 µM in [7] and 28.4 µM in [8].

On to `C[C@]12CCC[C@H](Cl)C1(O)C[C@H](C(=O)O)CC2` (stereo not given in full), for which the TGI in experiment [1], in experiment [9], in experiment [10], in experiment [2], in [4] and in [5] was over 100 µM each time. The TGI in experiment [6], in experiment [7] and in experiment [8] was over 100 µM each time.

For `COC1(OC)CC2C=C(S(=O)(=O)c3ccccc3)C1N(Cc1ccccc1)C2=O` (stereo not given), the TGI is 90.9 µM in [1]; over 100 µM in [9]; 33.1 µM in experiment [10]; 75.9 µM in experiment [2]; 49.8 µM in experiment [4]; over 100 µM in experiment [5]. In addition, the TGI in [6] is over 100 µM; in [7], over 100 µM; in experiment [8], 66.4 µM.

The record behind these values is PubChem BioAssay (NCI).
